In patent US20160286800A1, “STABILIZED COMPOSITION OF AN OXIDIZER AND METAL IONS, METHOD AND USE FOR IMPROVING DISEASE CONTROL, AND KIT FOR PREPARING SAID COMPOSITION” (AGRI-NÉO INC., priority 2013, published 2016):
Entries after “also recorded” stand apart in the source; their conditions may differ. Read-outs that look alike come from different tables or passages of the source.

How the values were obtained:
[1] = pH of the mixtures over time; assay type: physicochemical; conditions: Trt 1 pH (0.1%)
Experimental: (§1) Then mixtures #1 to #5 were prepared as per below table:
(§2) Mixtures were prepared at room temperature (around 20° C.) as per the following table: […]

[2] = test system: strawberry; assay: Phytotoxicity to strawberry (statement); conditions: applied individually to strawberry; stated, no data shown
[3] = Peracetic acid concentration in aqueous solution over time, Lamotte peracetic acid test kit (code 7191-01); assay type: physicochemical; conditions: with or without copper hydroxide / metal ions
Excerpt: Those skilled in the art know how to monitor levels of peracetic in solutions. For instance, it is known to use iodometric titration (F. P. Greenspan and D. G. MacKellar, 1948, Anal. Chem., 20, 1061) or to use analytical test strips. Suitable test strips include those manufactured by Merck and which are currently available under two different formats (i.e. 5-50 ppm and 100-500 ppm). These test strips provide a rapid, convenient semi-quantitative method of determining peracetic levels. LaMotte Company (Chestertown, Md., USA) also provides a test kit (code 7191-01) for titrating peracetic acid.
Peracetic acid was generated by admixing with water a powdered product which is hereinafter called ATO CIDE. More particularly, 2 grams of the powdered product identified hereinafter under the name ATO CIDE was added and mixed for 10 minutes with in 1 liter of water, to give a solution of 2 g/L ATO CIDE. ATO CIDE is a powdered mixture consisting of:
(§3) Then, 100 mL of the above-mentioned solution of peracetic acid (i.e ATO CIDE solution) was mixed for 5 minutes with 0.1 g of a powdered product sold under the trademark PARASOL WG®. PARASOL WG® is a powdered product comprising 50% elemental copper as copper hydroxide.
as §3, with “Then, a” for “Then,”, “0.2 mL of a complexing agent (PBTCA) until the sequestering agent was dissolved completely, and then” for “with”, “WG® is added and dissolved with the resulting mixture.” for “WG®.”
Then mixtures were prepared as per below table:
as §1, §2

[4] = test system: strawberry; conditions: in vivo

Work on `OP(O)O` [Trt 1, Phosphorous acid] yielded a pH ([1]; Example 15, 24 hrs, Trt 2 pH (0.2%)) of 2.53, a pH ([1]; Example 15, 48 hrs, Trt 2 pH (0.2%)) of 2.80 and a pH ([1]; Example 15, 120 hrs, Trt 2 pH (0.2%)) of 2.90. The pH ([1]; Example 15, 148 hrs, Trt 2 pH (0.2%)) was 2.85, the pH ([1]; Example 15, 172 hrs, Trt 2 pH (0.2%)) was 2.80 and the pH ([1]; Example 15, room temperature, Time zero (Trt 3-5: after the additions)) was 2.80.
In the case of `OP(O)O` [Phosphorous acid, phosphorous acid], the phytotoxicity [2] is reported as “phytotoxic” and the “effect on stability of peracetic acid (conclusion in words)” value (from here on “effect on stability of peracetic acid”) [3] is reported as “stabilizes the peracetic acid very well”.
With `NS(=O)(=O)O` [Sulfamic acid, sulfamic acid] the “effect on stability of peracetic acid” value [3] was “prevented peracetic acid from being decomposed”.
For `OB(O)O` [Boric acid, boric acid], the “effect on stability of peracetic acid” value [3] was “stabilizes PERACETIC ACID in solution for a longer period of time; also recorded: not as good as phosphoric acid in chelating copper hydroxide”.
In the case of `O=P(O)(O)O` [Phosphoric acid, phosphoric acid], the “effect on stability of peracetic acid” value [3] is reported as “prevented peracetic acid from being decomposed” and the “effect on stability of peracetic acid” value ([3]; listed as phosphoric acid) is reported as “prevented the decomposition of peracetic acid by metal ions”.
With copper the phytotoxicity [4] was “phytotoxic”.
